Data as given in US20240398793A1, “Methods of Treating Lymphedema” (Celltaxis, LLC, priority 2021, published 2024).
Where two headings read alike, the source gives them in different places.

Columns and labels:
LTA4H epoxide hydrolase = LTA4H epoxide hydrolase (Homo sapiens (Human), UniProt P09960); test: LTA4H epoxide hydrolase enzymatic activity (LTB4 production) in vitro; assay type: biochemical; conditions: read-out: IC50, LTA4H-mediated production of LTB4
Method: The hydrolase-homogeneous time resolved fluorescence assay is a two-step assay that measures the hydrolysis of LTA4 to LTB4 by analyzing the amount of LTB4 produced. The first step involves the enzymatic conversion of LTA4 to LTB4 and the second step involves the quantification of the LTB4 formed with a homogeneous time resolved fluorescence assay. […] In the whole blood assay, the inhibitor compounds are tested for their ability to inhibit LTB4 release upon stimulation with calcium ionophore and the LTB4 levels in supernatants are measured by ELISA.

[1] = tested on: patients with cystic fibrosis; test: Phase 2 study in adult CF patients, 48 weeks, efficacy; assay type: in vivo, human; conditions: for rate of pulmonary exacerbations: 48 weeks of treatment
[2] = Serious adverse reactions, Phase 2 Acebilustat safety population; assay type: in vivo, human; conditions: Phase 2, N = 217
Source text: SARs reported in the completed Phase 2 studies and suspected to be potentially related to drug treatment are tabulated below.

[3] = Clinical safety and tolerability
neutrophil swarming = test: Neutrophil swarming in vitro in response to CF sputum factors; assay type: cell-based; conditions: 48 ng/mL; factors present in human CF sputum
[4] = Long-term animal safety studies; assay type: in vivo, animals
[5] = Human pharmacokinetics after oral administration; assay type: in vivo; conditions: for half-life / Tmax: human, plasma; for half-life: oral, read-out: T1/2 (elimination half-life); for Tmax: po
P-glycoprotein (P-gp) = P-glycoprotein (P-gp) (Homo sapiens (Human), UniProt P08183); test: In vitro drug interaction study, P-gp; assay type: in vitro ADME
[6] = Preclinical phototoxicity studies

Chain of P-glycoprotein (P-gp) (P08183 whole entry): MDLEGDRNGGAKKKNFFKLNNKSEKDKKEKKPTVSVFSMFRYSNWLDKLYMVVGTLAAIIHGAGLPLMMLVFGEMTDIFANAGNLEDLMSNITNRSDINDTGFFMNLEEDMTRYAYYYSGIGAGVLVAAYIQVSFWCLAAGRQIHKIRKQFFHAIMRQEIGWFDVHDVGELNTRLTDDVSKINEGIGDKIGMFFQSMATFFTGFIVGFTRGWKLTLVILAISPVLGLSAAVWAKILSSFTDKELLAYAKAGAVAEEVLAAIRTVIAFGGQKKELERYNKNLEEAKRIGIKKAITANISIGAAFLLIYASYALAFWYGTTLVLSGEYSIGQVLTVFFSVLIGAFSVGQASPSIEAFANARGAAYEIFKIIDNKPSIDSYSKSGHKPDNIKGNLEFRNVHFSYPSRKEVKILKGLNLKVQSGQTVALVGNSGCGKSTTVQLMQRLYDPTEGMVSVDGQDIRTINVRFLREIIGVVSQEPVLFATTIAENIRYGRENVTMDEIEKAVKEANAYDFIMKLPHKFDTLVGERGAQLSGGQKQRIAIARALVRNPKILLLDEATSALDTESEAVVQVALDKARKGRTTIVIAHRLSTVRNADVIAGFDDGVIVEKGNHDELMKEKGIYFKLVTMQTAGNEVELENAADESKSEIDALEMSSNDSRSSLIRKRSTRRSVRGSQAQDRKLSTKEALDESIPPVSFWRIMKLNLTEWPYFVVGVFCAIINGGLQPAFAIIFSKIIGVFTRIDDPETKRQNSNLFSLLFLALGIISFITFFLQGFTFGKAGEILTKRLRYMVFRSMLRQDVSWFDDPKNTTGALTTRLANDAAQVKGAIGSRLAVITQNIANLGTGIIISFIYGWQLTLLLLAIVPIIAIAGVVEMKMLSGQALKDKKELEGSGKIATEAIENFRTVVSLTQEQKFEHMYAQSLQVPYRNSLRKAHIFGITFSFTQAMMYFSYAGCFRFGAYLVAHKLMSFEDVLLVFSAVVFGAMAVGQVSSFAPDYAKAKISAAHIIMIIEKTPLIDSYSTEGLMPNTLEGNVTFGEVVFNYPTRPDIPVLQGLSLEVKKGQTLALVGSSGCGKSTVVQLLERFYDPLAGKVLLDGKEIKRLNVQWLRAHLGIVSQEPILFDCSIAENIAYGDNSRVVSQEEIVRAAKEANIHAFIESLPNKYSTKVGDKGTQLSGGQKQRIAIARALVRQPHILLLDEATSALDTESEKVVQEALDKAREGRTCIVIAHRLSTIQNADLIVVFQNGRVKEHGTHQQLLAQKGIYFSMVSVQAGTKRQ
Chain of LTA4H epoxide hydrolase (P09960 whole entry): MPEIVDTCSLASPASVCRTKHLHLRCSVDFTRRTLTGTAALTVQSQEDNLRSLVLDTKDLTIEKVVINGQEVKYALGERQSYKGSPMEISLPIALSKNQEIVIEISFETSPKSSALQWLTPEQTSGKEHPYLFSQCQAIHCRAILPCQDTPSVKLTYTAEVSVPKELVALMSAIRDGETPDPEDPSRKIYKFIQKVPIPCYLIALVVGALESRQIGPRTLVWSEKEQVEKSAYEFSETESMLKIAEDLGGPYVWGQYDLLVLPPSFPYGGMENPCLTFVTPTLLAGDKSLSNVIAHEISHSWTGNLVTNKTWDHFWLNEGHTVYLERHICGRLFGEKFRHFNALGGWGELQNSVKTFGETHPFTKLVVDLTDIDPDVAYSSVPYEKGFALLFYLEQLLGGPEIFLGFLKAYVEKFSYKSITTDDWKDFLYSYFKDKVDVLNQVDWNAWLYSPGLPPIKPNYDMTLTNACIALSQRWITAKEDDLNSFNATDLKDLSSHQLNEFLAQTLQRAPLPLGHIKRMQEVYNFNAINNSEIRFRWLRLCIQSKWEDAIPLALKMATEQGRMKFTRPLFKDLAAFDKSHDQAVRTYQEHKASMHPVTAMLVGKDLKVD

O=C(O)c1ccc(CN2C[C@@H]3C[C@H]2CN3Cc2ccc(Oc3ccc(-c4ncco4)cc3)cc2)cc1 [Acebilustat, 4-{[(1S,4S)-5-({4-[4-oxazol-2-yl-phenoxy]phenyl}methyl)-2,5-diazabicyclo[2.2.1]heptan-2-yl]methyl}benzoic acid]
IC50 (LTA4H epoxide hydrolase): 13 nM
change from baseline in percent predicted FEV1 versus placebo ([1]; 48-week Phase 2 CF study, primary endpoint): no statistically significant difference
time to first pulmonary exacerbation ([1]; CF patients, 48 weeks, secondary efficacy analysis): concordant numerical benefit
risk of infection ([1]; adult CF patients, 48 weeks): no evidence of increased risk of infection
rate of pulmonary exacerbations ([1]; adult CF patients): concordant numerical benefit
rate of pulmonary exacerbations ([1]; adult CF patients, listed as acebilustat): showed promise in reducing the rate of pulmonary exacerbations
SAR Distal intestinal obstruction syndrome, # of Subjects [2]: 1
SAR Distal intestinal obstruction syndrome, Frequency [2]: 0.5%
SAR Distal intestinal obstruction syndrome, Intensity Mild [2]: 0
SAR Distal intestinal obstruction syndrome, Intensity Moderate [2]: 0
SAR Distal intestinal obstruction syndrome, Intensity Severe [2]: 1
SAR Drug Induced Liver Injury, # of Subjects [2]: 1
SAR Drug Induced Liver Injury, Frequency [2]: 0.5%
SAR Drug Induced Liver Injury, Intensity Mild [2]: 0
SAR Drug Induced Liver Injury, Intensity Moderate [2]: 0
SAR Drug Induced Liver Injury, Intensity Severe [2]: 1
SAR Gastrointestinal disorders, # of Subjects [2]: 1
SAR Gastrointestinal disorders, Frequency [2]: 0.5%
SAR Gastrointestinal disorders, Intensity Mild [2]: 0
SAR Gastrointestinal disorders, Intensity Moderate [2]: 0
SAR Gastrointestinal disorders, Intensity Severe [2]: 1
SAR Hepatobiliary Disorders, # of Subjects [2]: 1
SAR Hepatobiliary Disorders, Frequency [2]: 0.5%
SAR Hepatobiliary Disorders, Intensity Mild [2]: 0
SAR Hepatobiliary Disorders, Intensity Moderate [2]: 0
SAR Hepatobiliary Disorders, Intensity Severe [2]: 1
SAR Infections and infestations, # of Subjects [2]: 1
SAR Infections and infestations, Frequency [2]: 0.5%
SAR Infections and infestations, Intensity Mild [2]: 0
SAR Infections and infestations, Intensity Moderate [2]: 0
SAR Infections and infestations, Intensity Severe [2]: 1
SAR Infective pulmonary exacerbation of cystic fibrosis, # of Subjects [2]: 1
SAR Infective pulmonary exacerbation of cystic fibrosis, Frequency [2]: 0.5%
SAR Infective pulmonary exacerbation of cystic fibrosis, Intensity Mild [2]: 0
SAR Infective pulmonary exacerbation of cystic fibrosis, Intensity Moderate [2]: 0
SAR Infective pulmonary exacerbation of cystic fibrosis, Intensity Severe [2]: 1
tolerability ([3]; CF patients, 50 mg and 100 mg per day for 48 weeks): generally well tolerated
serious adverse reactions (SARs) ([3]; Phase 1 studies, healthy volunteers or subjects with CF): No SARs were reported
safety and tolerability ([3]; across six clinical studies, 5 to 200 mg): generally safe and well tolerated
circulating neutrophil counts or sputum microbiology ([3]; clinical studies): did not alter
headache considered to be related to Acebilustat ([3]; clinical studies): 8%
tolerability ([3]; healthy volunteers, once-daily oral up to 200 mg/day for 14 days): well tolerated
reduction of neutrophil swarming (neutrophil swarming): 80%
ophthalmologic changes ([4]; long term safety studies): no evidence for ophthalmologic changes
dose limiting toxicity ([4]; long-term animal safety studies across species): failure to gain weight associated with reduced food consumption
half-life ([5]; CF patients): 480 to 540 min
half-life ([5]; healthy volunteers): 900 to 1080 min
Tmax ([5]; humans, fasting): ~1.5 h
Tmax ([5]; humans, with a high-fat meal): 5 to 6 h
exposures (Cmax, AUC), healthy volunteers versus CF patients ([5]; humans): did not vary appreciably
time to steady state exposure ([5]; humans, repeated dosing): 7 days
effect of larger body size and concomitant CFTR modulator therapies on clearance ([5]; population PK, Phase 2 CF trial): increase clearance
drug interactions with substrates of P-gp (P-glycoprotein (P-gp)): potential for drug interactions
phototoxic effects [6]: no potential for phototoxic effects
